Experimental data reported in ChEMBL document CHEMBL1156193, “Discovery of a long-acting, peripherally selective inhibitor of catechol-O-methyltransferase” (2010).

Key:
[1] = molecular target: T1, Catechol O-methyltransferase (Rattus norvegicus) (UniProt P22734); assay: Inhibition of COMT in rat liver homogenates assessed as metanephrine formation at 30 uM relative to control; values are per cent of control
T1 sequence (whole entry): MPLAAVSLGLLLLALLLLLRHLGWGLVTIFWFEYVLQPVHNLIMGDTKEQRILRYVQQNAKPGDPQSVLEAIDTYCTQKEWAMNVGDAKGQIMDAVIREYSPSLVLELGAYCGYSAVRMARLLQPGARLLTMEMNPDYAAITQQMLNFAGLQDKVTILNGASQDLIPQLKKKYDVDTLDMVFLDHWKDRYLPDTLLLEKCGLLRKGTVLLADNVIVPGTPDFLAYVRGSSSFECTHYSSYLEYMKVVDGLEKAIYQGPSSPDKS

[2] = Cytotoxicity against mouse Neuro2a cells assessed as cell viability at 30 uM after 24 hrs; assay type: functional; conditions: N2a, read-out: Activity
Rattus norvegicus [3] = assay: Inhibition of COMT in Wistar rat liver homogenates assessed as metanephrine formation at 3 mg/kg, po measured after 3 hrs relative to control; values are per cent of control
[4] = molecular target: T1, Catechol O-methyltransferase (Rattus norvegicus); assay: Inhibition of COMT in rat liver homogenates assessed as metanephrine formation at 3 uM relative to control; values are per cent of control
Mus musculus [5] = assay: Inhibition of COMT in NMRI mouse liver homogenates assessed as metanephrine formation at 30 mg/kg, po measured after 6 hrs relative to control; values are per cent of control
Mus musculus [6] = assay: Inhibition of COMT in NMRI mouse liver homogenates assessed as metanephrine formation at 3 mg/kg, po measured after 3 hrs relative to control; values are per cent of control
Rattus norvegicus [7] = assay: Inhibition of COMT in Wistar rat brain homogenates assessed as metanephrine formation at 3 mg/kg, po measured after 3 hrs relative to control; values are per cent of control

## O=C(O)c1cc(-c2ccnn2-c2cccc(Cl)c2)cc(O)c1O
[1]
  residual activity: 24.1%

## O=[N+]([O-])c1cc(-c2nc(-c3ccc[n+]([O-])c3)no2)cc(O)c1O
[2]
  viability at 30 µM: 93.8%
Rattus norvegicus [3]
  level, % of control at 3 mg/kg: 77%

## O=[N+]([O-])c1cc(-c2ccnn2-c2ccccc2)cc(O)c1O
[4]
  residual activity: 0%
Mus musculus [5]
  level, % of control at 30 mg/kg: 60.8%

## Cc1ccc(-c2noc(-c3cc(O)c(O)c([N+](=O)[O-])c3)n2)c(Br)[n+]1[O-]
[2]
  viability at 30 µM: 76.3%
Rattus norvegicus [3]
  level, % of control at 3 mg/kg: 33.7%

## N#Cc1ccc(-n2nccc2-c2cc(O)c(O)c([N+](=O)[O-])c2)cc1
[4]
  residual activity: 0.3%
Mus musculus [5]
  level, % of control at 30 mg/kg: 61.1%

## O=[N+]([O-])c1cc(-c2nc(-c3ccc(F)cc3)no2)cc(O)c1O
[2]
  viability at 30 µM: 29.5%
Mus musculus [6]
  level, % of control at 3 mg/kg: 12.7%

## Cc1ccc(-c2noc(-c3cc(O)c(O)c([N+](=O)[O-])c3)n2)c(Cl)n1
[2]
  viability at 30 µM: 53.1%

## Oc1ccc(-c2ccnn2-c2ccc(C(F)(F)F)cc2)c(F)c1O
[1]
  residual activity: 32.3%

## O=[N+]([O-])c1cc(-c2nc(-c3ccc(Br)cc3)no2)cc(O)c1O
[2]
  viability at 30 µM: 12.2%
Mus musculus [6]
  level, % of control at 3 mg/kg: 12.7%

## O=[N+]([O-])c1cc(-c2nc(N3CCOCC3)no2)cc(O)c1O
[2]
  viability at 30 µM: 67.5%
Mus musculus [6]
  level, % of control at 3 mg/kg: 45.8%

## Cc1c(C)c(C)[n+]([O-])c(Cl)c1-c1noc(-c2cc(O)c(O)c([N+](=O)[O-])c2)n1
[2]
  viability at 30 µM: 95.1%
Rattus norvegicus [3]
  level, % of control at 3 mg/kg: 7.9%

## Cc1ccc(-n2nccc2-c2cc(O)c(O)c([N+](=O)[O-])c2)cc1
[4]
  residual activity: 0%

## Cc1cc(C)[n+]([O-])c(Cl)c1-c1noc(-c2cc(O)c(O)c([N+](=O)[O-])c2)n1
[2]
  viability at 30 µM: 92.3%
Rattus norvegicus [3]
  level, % of control at 3 mg/kg: 13.9%

## Cc1c(-c2noc(-c3cc(O)c(O)c([N+](=O)[O-])c3)n2)c(C(F)(F)F)cc(-c2ccccc2)[n+]1[O-]
[2]
  viability at 30 µM: 26.6%
Rattus norvegicus [3]
  level, % of control at 3 mg/kg: 24.3%

## O=[N+]([O-])c1cc(-c2nc(-c3ccc(C(F)(F)F)[n+]([O-])c3)no2)cc(O)c1O
[2]
  viability at 30 µM: 87%
Rattus norvegicus [3]
  level, % of control at 3 mg/kg: 34.4%

## O=[N+]([O-])c1cc(-c2nc(-c3ccnc(F)c3)no2)cc(O)c1O
[2]
  viability at 30 µM: 25%

## O=[N+]([O-])c1cc(-c2nc(-c3cnccc3C(F)(F)F)no2)cc(O)c1O
[2]
  viability at 30 µM: 14.7%

## O=[N+]([O-])c1cc(-c2nc(N3CCN(c4ccccn4)CC3)no2)cc(O)c1O
[2]
  viability at 30 µM: 24.6%
Mus musculus [6]
  level, % of control at 3 mg/kg: 32.2%

## O=[N+]([O-])c1cc(-c2ccn[nH]2)cc(O)c1O
[4]
  residual activity: 0%

## Nc1nc(-c2cc(O)c(O)c([N+](=O)[O-])c2)c(-c2ccccc2)s1
Mus musculus [5]
  level, % of control at 30 mg/kg: 77.4%

## Cc1ccc(C(=O)n2ncc(-c3ccccc3)c2-c2cc(O)c(O)c([N+](=O)[O-])c2)cc1
[4]
  residual activity: 2.8%
Mus musculus [5]
  level, % of control at 30 mg/kg: 89.3%

## O=[N+]([O-])c1cc(-c2nc(-c3ccccc3)no2)cc(O)c1O
[2]
  viability at 30 µM: 43.1%
Rattus norvegicus [7]
  level, % of control at 3 mg/kg: 71.7%
Rattus norvegicus [3]
  level, % of control at 3 mg/kg: 20.6%
Mus musculus [6]
  level, % of control at 3 mg/kg: 20.6%
Mus musculus [5]
  level, % of control at 30 mg/kg: 7%

## Cn1nccc1-c1cc(O)c(O)c([N+](=O)[O-])c1
[4]
  residual activity: 1.1%

## O=[N+]([O-])c1cc(-c2nc(-c3c[n+]([O-])ccc3C(F)(F)F)no2)cc(O)c1O
[2]
  viability at 30 µM: 93.4%
Rattus norvegicus [3]
  level, % of control at 3 mg/kg: 23.6%

## O=C(Cc1ccccc1)c1cc(O)c(O)c([N+](=O)[O-])c1 [NEBICAPONE]
Mus musculus [5]
  level, % of control at 30 mg/kg: 85.7%

## O=[N+]([O-])c1cc(-c2nc(-c3cccs3)no2)cc(O)c1O
[2]
  viability at 30 µM: 19.3%
Mus musculus [6]
  level, % of control at 3 mg/kg: 29.6%

## O=[N+]([O-])c1cc(-c2nc(-c3ccncc3)no2)cc(O)c1O
[2]
  viability at 30 µM: 27.3%
